Data as given in patent US20240108740A1, “THERAPEUTIC COMPOSITIONS INCLUDING SPN10 AND USES THEREOF” (Stealth BioTherapeutics Inc., priority 2022, published 2024).
Residues, ends and D or L forms follow the SMILES beside them.

Tests used:
[1] = tested on: CD1 mice; test: Example 52: ATP synthesis following a burn injury (^31P NMR, EPR); format: in vivo, mouse
Method: Material and Methods. Male 6-week-old CD1 mice weighing 20-25 g will be anesthetized by intraperitoneal (i.p.) injection of 40 mg/kg pentobarbital sodium. The left hind limb of all mice in all groups will be shaved. Burn subjects will be subjected to a nonlethal scald injury of 3-5% total body surface area (TBSA) by immersing the left hind limb in 90° C. water for 3 seconds.
NMR spectroscopy is described in detail in Padfield, et al., Proc. Natl. Acad. Sci., 102:5368-5373 (2005). Briefly, mice will be randomized into 1) burn+control vehicle, 2) burn+peptide conjugate, 3) non-burn+control vehicle, 4) non-burn+peptide conjugate, 5) burn+aromatic-cationic peptides, 6) non-burn+aromatic-cationic peptides, 7) burn+SPN10, 8) non-burn+SPN10, 9) burn+SPN10+aromatic-cationic peptides, and 10) non-burn+SPN10+aromatic-cationic peptides groups. […] T1 relaxation times of Pi and phosphocreatine (PCr) will be measured using an inversion recovery pulse sequence in the presence of γ-ATP saturation. […]

[2] = tested on: anatomic zone of no-reflow; test: No re-flow phenomenon after PCI in humans; format: in vivo, human; conditions: at the time of reperfusion
Method: Study group. Men and women, 18 years of age or older, who present within 6 hours after the onset of chest pain, who have ST-segment elevation of more than 0.1 mV in two contiguous leads, and for whom the clinical decision is made to treat with PCI will be eligible for enrollment. Patients will be eligible for the study whether they are undergoing primary PCI or rescue PCI. Occlusion of the affected coronary artery (Thrombolysis in Myocardial Infarction [TIMI] flow grade 0) at the time of admission will also be a criterion for inclusion. Angiography and Revascularization. Left ventricular and coronary angiography will be performed with the use of standard techniques, just before revascularization. […] No re-flow will be assessed by one or more imaging techniques. Re-flow phenomenon will be assessed using myocardial contrast echocardiography, coronary angiography, myocardial blush, coronary doppler imaging, electrocardiography, nuclear imaging single-photon emission CT, using thallium or technetium-99 m, or PET. […] Post-contrast delayed enhancement will be used on day 4±1, day 30±3 and 6+1.5 months after successful PCI and stenting to quantify infracted myocardium. This will be defined quantitatively by an intensity of the myocardial post-contrast signal that is more than 2 SD above that in a reference region of remote, non-infarcted myocardium within the same slice. […]

## N=C(N)NCCC[C@H](NC(=O)[C@@H](N)Cc1c[nH]c2ccccc12)C(=O)N[C@@H](Cc1c[nH]c2ccccc12)C(=O)N[C@@H](CCCCN)C(N)=O [SPN10, H-L-Trp-L-Arg-L-Trp-L-Lys-NH2] (H-WRWK-NH2)
[1]; compared to burn controls
  ATP synthesis rate in burned mice: significant increase in the ATP synthesis rate
[1]; non-burn
  ATP synthesis rate in control healthy mice: increase ATP synthesis rate substantially
[2]
  anatomic zone of no-reflow versus placebo: smaller
